In one test the target is T1, HSP90a protein (Homo sapiens, UniProt P07900).
T1 construct: purchased BPS Bioscience 50298
Briefly: HSP90α-binding fluorescent polarization (FP) assay, BODIPY-labeled RNK04010 probe. The settings on record: FP competition with RNK04010 (BODIPY-labeled), 5 nM, 300 min at 25° C. The gist of the method:
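Compound dilutions (20 μM to 5.2 nM, 2.5-fold) are combined with 5 nM final labeled probe, and HSP90a N-terminal protein is added last. Plates are shaken briefly and held at 25° C for 120 min (FITC-geldanamycin) or 300 min (BODIPY-RNK04010), then FP is measured.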

The next test addresses KRAS(G12C) (Homo sapiens, UniProt P01116, G12C). In words: KRAS(G12C)/SOS1 homogeneous time-resolved fluorescence (HTRF) assay. Further details: purchased Cisbio 63ADK000CB16PEG. Particulars: absence of GTP, 4° C. for 3 hr, read-out: KRAS (G12C) binding. The gist of the method:
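Three-hour incubation at 4 °C of 3-fold compound dilutions (lowest 1.02 nM) with KRAS(G12C), SOS1 and detection reagents, GTP absent. Disruption of the KRAS(G12C)/SOS1 complex detected by time-resolved fluorescence.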

For test [1], the system named is MIA PaCa-2 human pancreatic carcinoma. In words: MIA PaCa-2 CCK-8 proliferation assay. The settings on record: Homo sapiens, MIA PaCa-2, 72 h, MIA PaCa-2 cells. Format: cell-based. The gist of the method:
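Compounds were tested as a 3-fold series from 20 μM down to 1.02 nM in CCK-8 absorbance assays. The lines used were NCI-H23 and NCI-H358, each with 1 KRAS(G12C) copy, and MIA PaCa-2 with 2 copies. Inhibition was derived relative to DMSO controls, with a no-cell blank subtracted.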

Chain of KRAS(G12C) (P01116 1-188 isoform P01116-2 G12C): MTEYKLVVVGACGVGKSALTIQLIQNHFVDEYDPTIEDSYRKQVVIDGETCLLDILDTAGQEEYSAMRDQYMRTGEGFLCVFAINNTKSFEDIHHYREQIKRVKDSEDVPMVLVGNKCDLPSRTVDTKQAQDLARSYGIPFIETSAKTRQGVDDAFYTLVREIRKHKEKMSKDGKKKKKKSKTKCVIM

Take `C=CC(=O)N1CCN(c2nc(OCCN3CCN(Cc4cc(C(C)C)c(O)cc4O)CC3)nc3c2CCN(c2cccc4cccc(Cl)c24)C3)C[C@@H]1CC#N` [Compound 216, (S)-2-(1-acryloyl-4-(7-(8-chloronaphthalen-1-yl)-2-(2-(4-(2,4-dihydroxy-5-isopropylbenzyl)piperazin-1-yl)ethoxy)-5,6,7,8-tetrahydropyrido[3,4-d]pyrimidin-4-yl)piperazin-2-yl)acetonitrile]: the IC50 was 0.1 to 1 µM on HSP90a protein and < 0.1 µM at KRAS(G12C). In test [1], this molecule registered an EC50 of 0.1 to 1 µM.

As to `C=CC(=O)N1CCN(c2nc(OCCN3CCC4(CC3)CCN(Cc3cc(C(C)C)c(O)cc3O)CC4)nc3c2CCN(c2cccc4cccc(Cl)c24)C3)C[C@@H]1CC#N` [Compound 217, (S)-2-(1-acryloyl-4-(7-(8-chloronaphthalen-1-yl)-2-(2-(9-(2,4-dihydroxy-5-isopropylbenzyl)-3,9-diazaspiro[5.5]undecan-3-yl)ethoxy)-5,6,7,8-tetrahydropyrido[3,4-d]pyrimidin-4-yl)piperazin-2-yl)acetonitrile], the results for the IC50 on HSP90a protein and on KRAS(G12C) were 0.1 to 1 µM and < 0.1 µM, respectively. In addition, in test [1], the concentration giving a half-maximal response (EC50) is > 1 µM.

In the case of `C=CC(=O)N1CCN(c2nc(OCCN3CCC4(CC3)CCN(C(=O)C3CCN(Cc5ccc(-n6c(O)nnc6-c6cc(C(C)C)c(O)cc6O)cc5)CC3)CC4)nc3c2CCN(c2cccc4cccc(Cl)c24)C3)C[C@@H]1CC#N` [Compound 218, (S)-2-(1-acryloyl-4-(7-(8-chloronaphthalen-1-yl)-2-(2-(9-(1-(4-(3-(2,4-dihydroxy-5-isopropylphenyl)-5-hydroxy-4H-1,2,4-triazol-4-yl)benzyl)piperidine-4-carbonyl)-3,9-diazaspiro[5.5]undecan-3-yl)ethoxy)-5,6,7,8-tetrahydropyrido[3,4-d]pyrimidin-4-yl)piperazin-2-yl)acetonitrile], the IC50 on HSP90a protein and at KRAS(G12C) was < 0.1 µM each time. The EC50 in test [1] is > 1 µM.

As to `C=CC(=O)N1CCN(c2nc(OCC3CN(C(=O)c4ccc(-n5c(O)nnc5-c5cc(C(C)C)c(O)cc5O)cc4)C3)nc3c2CCN(c2cccc4cccc(Cl)c24)C3)C[C@@H]1CC#N` [Compound 221, (S)-2-(1-acryloyl-4-(7-(8-chloronaphthalen-1-yl)-2-((1-(4-(3-(2,4-dihydroxy-5-isopropylphenyl)-5-hydroxy-4H-1,2,4-triazol-4-yl)benzoyl)azetidin-3-yl)methoxy)-5,6,7,8-tetrahydropyrido[3,4-d]pyrimidin-4-yl)piperazin-2-yl)acetonitrile], the IC50 at HSP90a protein was < 0.1 µM; at KRAS(G12C), > 1 µM. The EC50 in test [1] is > 1 µM.

As to `C=CC(=O)N1CCN(c2nc(OCCN3CCN(C(=O)C4CCN(Cc5ccc(-n6c(C(=O)NCC(F)(F)F)nnc6-c6cc(C)c(O)cc6O)cc5)CC4)CC3)nc3c2CCN(c2cccc4cccc(Cl)c24)C3)C[C@@H]1CC#N` [Compound 222, (S)-4-(4-((4-(4-(2-((4-(4-acryloyl-3-(cyanomethyl)piperazin-1-yl)-7-(8-chloronaphthalen-1-yl)-5,6,7,8-tetrahydropyrido[3,4-d]pyrimidin-2-yl)oxy)ethyl)piperazine-1-carbonyl)piperidin-1-yl)methyl)phenyl)-5-(2,4-dihydroxy-5-methylphenyl)-N-(2,2,2-trifluoroethyl)-4H-1,2,4-triazole-3-carboxamide], the IC50 on HSP90a protein was < 0.1 µM; on KRAS(G12C), 0.1 to 1 µM. Also, the EC50 in test [1] fell in the range of 0.1 to 1 µM.

Consider `C=CC(=O)N1CCN(c2nc(OC[C@@H]3CCCN(C(=O)C4CCN(Cc5ccc(-n6c(O)nnc6-c6cc(C(C)C)c(O)cc6O)cc5)CC4)C3)nc3c2CCN(c2cccc4cccc(Cl)c24)C3)C[C@@H]1CC#N` [Compound 293, 2-((S)-1-acryloyl-4-(7-(8-chloronaphthalen-1-yl)-2-(((R)-1-(1-(4-(3-(2,4-dihydroxy-5-isopropylphenyl)-5-hydroxy-4H-1,2,4-triazol-4-yl)benzyl)piperidine-4-carbonyl)piperidin-3-yl)methoxy)-5,6,7,8-tetrahydropyrido[3,4-d]pyrimidin-4-yl)piperazin-2-yl)acetonitrile], for which the IC50 at HSP90a protein is < 0.1 µM; at KRAS(G12C), > 1 µM. In test [1], this molecule returned an EC50 of 0.1 to 1 µM.

Source of the values: patent US20230391772A1, “METHODS AND COMPOSITIONS FOR TARGETED PROTEIN DEGRADATION” (Ranok Therapeutics (Hangzhou) Co. Ltd., priority 2020, published 2023).
